# Target: human Melanocortin-4 receptor (MC4R) (Homo sapiens (Human), UniProt P32245)
# Assay: Functional in vitro MC4R antagonist potency assay (cAMP HTRF in CHO cells)
# Format: cell-based
# Conditions: human MC4R in CHO cells, cAMP HTRF, 200 nM aMSH challenge; Kb from IC50 by Leff-Dougall equation; geometric mean; read-out: Kb (nM) Antagonist geometric
# Description: Example BB. Functional In Vitro MC4R Antagonist Potency Assay
# The functional in vitro antagonist potency for test compounds was determined by monitoring intracellular cyclic adenosine monophosphate (cAMP) levels in Chinese hamster ovary (CHO—) cells stably expressing the human Melanocortin-4 receptor (MC4R). Following agonist activation, human MC4R associates with the G-protein complex causing the Gα subunit to exchange bound GDP for GTP, followed by dissociation of the Ga-GTP complex. The activated Gα subunit can couple to downstream effectors to regulate the levels of second messengers or cAMP within the cell. Thereby, determination of intracellular cAMP levels allows for pharmacological characterization. Intracellular cAMP levels are quantitated using a homogenous assay utilizing the Homogeneous Time-Resolved Fluorescence (HTRF) technology from CisBio. The method is a competitive immunoassay between native cAMP produced by cells and the cAMP labelled with the acceptor dye, d2. The two entities then compete for binding to a monoclonal anti-cAMP antibody labeled with cryptate. The specific signal is inversely proportional to the concentration of cAMP in the cells.
# Test compounds were solubilized to 30 mM in 100% dimethyl sulfoxide (DMSO) and stored. […] The final compound concentration range in the assay was 400 nM to […], with a final DMSO concentration of 0.1%.
# (95% O2: 5% CO2) overnight, with micro-clime lids (Labcyte, Cat No. LLS-0310). […] Cells were incubated with compound for 30 minutes at 37° C. (95% O2: 5% CO2) before addition of 5 μL EC80, agonist stimulation (200 nM α-melanocyte stimulating hormone, aMSH, Bachem) and another 30-minute incubation at 37° C. (95% O2: 5% CO2). Intracellular cAMP levels were quantified as per Cisbio's protocol (5 uL of D2 and then 5 uL Cryptate, incubated for 1-2 hours at room temperature).
# Data expressed as nM cAMP were then normalized to control wells using Activity Base (IDBS). Zero percent effect (ZPE) was defined as nM of cAMP generated from ECK, agonist stimulation (200 nM aMSH). In the absence of an antagonist control compound, one hundred percent effect (HPE) was defined as nM of cAMP generated from assay buffer/vehicle only.
# Sequence of human Melanocortin-4 receptor (MC4R) (P32245 whole entry): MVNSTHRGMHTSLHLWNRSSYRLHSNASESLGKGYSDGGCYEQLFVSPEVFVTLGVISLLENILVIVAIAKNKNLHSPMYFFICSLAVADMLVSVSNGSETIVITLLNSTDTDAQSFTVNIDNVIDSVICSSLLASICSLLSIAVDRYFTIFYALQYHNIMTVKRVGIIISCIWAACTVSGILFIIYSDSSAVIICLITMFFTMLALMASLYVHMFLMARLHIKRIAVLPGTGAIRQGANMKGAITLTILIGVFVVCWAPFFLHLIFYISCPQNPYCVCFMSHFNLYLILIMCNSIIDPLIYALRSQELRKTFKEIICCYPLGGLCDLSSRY
row,SMILES,Kb
1,"COc1cc([C@@H](C)C(=O)N2CC[C@@]3(CCc4cc(-c5nc(C)n(C(F)F)n5)c(C)nc4N3)C2)c(F)cn1 [Example 188, (2R)-1-{(2S)-6-[1-(difluoromethyl)-5-methyl-1H-1,2,4-triazol-3-yl]-7-methyl-3,4-dihydro-1H-spiro[1,8-naphthyridine-2,3′-pyrrolidin]-1′-yl}-2-(5-fluoro-2-methoxypyridin-4-yl)propan-1-one]",0.086 nM
2,"COc1cc([C@@H](C)C(=O)N2CC[C@@]3(CCc4cc(-c5ncc(Cl)cn5)c(C)nc4N3)C2)c(F)cn1 [Example 144, (2R)-1-[(2S)-6-(5-chloropyrimidin-2-yl)-7-methyl-3,4-dihydro-1H-spiro[1,8-naphthyridine-2,3′-pyrrolidin]-1′-yl]-2-(5-fluoro-2-methoxypyridin-4-yl)propan-1-one]",8.5 nM
3,"COc1cc([C@@H](C)C(=O)N2CC[C@@]3(CCc4cc(-c5cnn(C)n5)c(C)nc4N3)C2)c(Cl)cn1 [Example 119, (2R)-2-(5-chloro-2-methoxypyridin-4-yl)-1-[(2S)-7-methyl-6-(2-methyl-2H-1,2,3-triazol-4-yl)-3,4-dihydro-1H-spiro[1,8-naphthyridine-2,3′-pyrrolidin]-1′-yl]propan-1-one]",> 1.1 nM
4,"COc1cc([C@@H](C)C(=O)N2CC[C@@]3(CCc4cc(-c5cncc(C)n5)c(C)nc4N3)C2)c(F)cn1 [Example 156, (2R)-2-(5-fluoro-2-methoxypyridin-4-yl)-1-[(2S)-7-methyl-6-(6-methylpyrazin-2-yl)-3,4-dihydro-1H-spiro[1,8-naphthyridine-2,3′-pyrrolidin]-1′-yl]propan-1-one]",20 nM
5,"COc1cc([C@@H](C)C(=O)N2CC[C@@]3(CCc4cc(Cl)c(C)nc4N3)C2)c(F)cn1 (single isomer, unassigned) [Example 102]",> 92 nM
6,"COc1cc([C@@H](C)C(=O)N2CC[C@@]3(CCc4cc(-c5ccnnc5)c(C)nc4N3)C2)c(F)cn1 [Example 141, (2R)-2-(5-fluoro-2-methoxypyridin-4-yl)-1-[(2S)-7-methyl-6-(pyridazin-4-yl)-3,4-dihydro-1H-spiro[1,8-naphthyridine-2,3′-pyrrolidin]-1′-yl]propan-1-one]",29 nM
7,"COc1cc([C@@H](C)C(=O)N2CC[C@@]3(CCc4cc(-c5cnsc5)c(C)nc4N3)C2)c(F)cn1 [Example 150, (2R)-2-(5-fluoro-2-methoxypyridin-4-yl)-1-[(2S)-7-methyl-6-(1,2-thiazol-4-yl)-3,4-dihydro-1H-spiro[1,8-naphthyridine-2,3′-pyrrolidin]-1′-yl]propan-1-one]",9 nM
8,"COc1cc([C@@H](C)C(=O)N2CC[C@@]3(CCc4cc(-c5cn(C(F)F)c(C)n5)c(C)nc4N3)C2)c(F)cn1 [Example 138, (2R)-1-{(2S)-6-[1-(difluoromethyl)-2-methyl-1H-imidazol-4-yl]-7-methyl-3,4-dihydro-1H-spiro[1,8-naphthyridine-2,3′-pyrrolidin]-1′-yl}-2-(5-fluoro-2-methoxypyridin-4-yl)propan-1-one]",0.44 nM
9,"COc1cc([C@@H](C)C(=O)N2CC[C@@]3(CCc4cc(-c5nc(C(F)F)n(C)n5)c(C)nc4N3)C2)c(Cl)cn1 [Example 120, (2R)-2-(5-chloro-2-methoxypyridin-4-yl)-1-{(2S)-6-[5-(difluoromethyl)-1-methyl-1H-1,2,4-triazol-3-yl]-7-methyl-3,4-dihydro-1H-spiro[1,8-naphthyridine-2,3′-pyrrolidin]-1′-yl}propan-1-one]",0.08 nM
10,"COc1cc([C@@H](C)C(=O)N2CC[C@@]3(CCc4cc(-c5ccc(C6CC6)nn5)c(C)nc4N3)C2)c(F)cn1 [Example 199, (2R)-1-[(2S)-6-(6-cyclopropylpyridazin-3-yl)-7-methyl-3,4-dihydro-1H-spiro[1,8-naphthyridine-2,3′-pyrrolidin]-1′-yl]-2-(5-fluoro-2-methoxypyridin-4-yl)propan-1-one]",> 54 nM

# Same assay, conditions: read-out: Kb (nM) Antagonist geometric mean
row,SMILES,Kb
1,"Cc1nc2c(cc1-c1ncccn1)CC[C@@]1(CCN(C(=O)[C@H](C)c3ccc(F)c(F)c3)C1)N2 (single isomer, unassigned) [Example 50]",2.9 nM
2,"Cc1nc2c(cc1-c1ncccn1)CC[C@@]1(CCN(C(=O)Cc3ccc(C(F)(F)F)cc3)C1)N2 [Example 73, 1-[(2S)-7-methyl-6-(pyrimidin-2-yl)-3,4-dihydro-1H-spiro[1,8-naphthyridine-2,3′-pyrrolidin]-1yl]-2-[4-(trifluoromethyl)phenyl]ethan-1-one]",17 nM
3,"COc1cc([C@@H](C)C(=O)N2CC[C@]3(CCc4cc(-c5ncccn5)c(C)nc4N3)C2)c(F)cn1 [Example 29, (2R)-2-(5-fluoro-2-methoxypyridin-4-yl)-1-[(2R)-7-methyl-6-(pyrimidin-2-yl)-3,4-dihydro-1H-spiro[1,8-naphthyridine-2,3′-pyrrolidin]-1′-yl]propan-1-one]",12 nM

# Target: hMC4R (Homo sapiens (Human), UniProt P32245)
# Assay: In vitro binding affinity assay using hMC4R (radioligand competition binding, [125I]-(Nle4, D-Phe7)-α-MSH)
# Conditions: geometric mean, read-out: Ki (nM) geometric
# Description: Example AA. In Vitro Binding Affinity Assay Using hMC4R
# The binding affinity of test compounds at the […] (hMC4R) was assessed using a radioligand competition binding assay. […] Cell membranes were bulked and frozen until the assay was performed.
# Compounds were solubilized in 100% dimethyl sulfoxide (DMSO) to a concentration of 30 mM. A 10-point intermediate dilution series using half log dilutions was created in 100% DMSO with a top concentration of 0.03 mM. […] The final compound range in the assay was 300 nM to 0.01 nM with a final DMSO concentration of 1%. […] The exact concentration of radioligand used for each experiment was determined by liquid scintillation counting and adjusted if necessary.
# Frozen hMC4R cell membranes were thawed and Dounce homogenized. Homogenates were resuspended in assay buffer to a concentration of 2 μg per well. […] The plates were incubated for 2 hours at room temperature.
# The raw data (expressed as counts per minute) were analyzed using ActivityBase (IDBS Data Management Software). […] Equilibrium dissociation constant for inhibitor of ligand and receptor interaction (Ki) values were then calculated from the IC50 values using the Cheng-Prusoff equation: Ki=IC50/(1+([L]/Kd)), where [L] is the concentration of the radioligand used in the experiment and Kd is the affinity of the radioligand (determined in separate saturation experiments).
# Sequence of hMC4R (P32245 whole entry): as above
row,SMILES,Ki
1,"COc1cc([C@@H](C)C(=O)N2CC[C@@]3(CCc4cc(-c5nnn(C)n5)c(C)nc4N3)C2)ccn1 (single isomer, unassigned) [Example 126]",140 nM
2,"Cc1nc2c(cc1-c1nnn(C)n1)CC[C@@]1(CCN(C(=O)[C@H](C)c3ccc(C(F)(F)F)cc3)C1)N2 (single isomer, unassigned) [Example 110]",29 nM
3,"COc1cc([C@@H](C)C(=O)N2CC[C@@]3(CCc4cc(Cl)c(C)nc4N3)C2)c(F)cn1 (single isomer, unassigned) [Example 103]",> 250 nM
4,"COc1ncc(F)c([C@@H](C)C(=O)N2CC[C@@]3(CCc4cc(-c5nc6ccccn6n5)c(C)nc4N3)C2)n1 (single isomer, unassigned) [Example 133]",63 nM

# Same assay, conditions: geometric mean, read-out: Ki (nM) geometric mean
row,SMILES,Ki
1,"COc1cc(OC)cc([C@@H](C)C(=O)N2CC[C@@]3(CCc4ccc(C)nc4N3)C2)c1 (single isomer, unassigned) [Example 97]",100 nM
2,"COc1ccc([C@@H](C)C(=O)N2CC[C@@]3(CCc4cc(-c5ncccn5)c(C)nc4N3)C2)cc1F (single isomer, unassigned) [Example 43]",43 nM
3,"Cc1ccc2c(n1)NC1(CCN(C(=O)Cc3ccc(F)cc3)C1)CC2C (single isomer, unassigned) [Example 10, 1-(4,7-dimethyl-3,4-dihydro-1H-spiro[1,8-naphthyridine-2,3′-pyrrolidin]-1′-yl)-2-(4-fluorophenyl)ethan-1-one]",440 nM
4,"COc1cc([C@@H](C)C(=O)N2CC[C@@]3(CCc4ccc(C)nc4N3)C2)c(F)cn1 (single isomer, unassigned) [Example 99]",81 nM
5,"COc1cc([C@@H](C)C(=O)N2CC[C@@]3(CCc4ccc(C)nc4N3)C2)c(Cl)cn1 (single isomer, unassigned) [Example 101]",110 nM
6,"COc1cc([C@](C)(F)C(=O)N2CC[C@@]3(CCc4cc(-c5ncccn5)c(C)nc4N3)C2)ccn1 (single isomer, unassigned) [Example 47]",20 nM
7,"Cc1nc2c(cc1-c1cnn(C)c1)CCC1(CCN(C(=O)Cc3ccc(F)cc3)C1)N2 (single isomer, unassigned) [Example 20, 2-(4-fluorophenyl)-1-[7-methyl-6-(1-methyl-1H-pyrazol-4-yl)-3,4-dihydro-1H-spiro[1,8-naphthyridine-2,3′-pyrrolidin]-1′-yl]ethan-1-one]",0.6 nM
8,"Cc1nc2c(cc1-c1ncccn1)CC[C@@]1(CCN(C(=O)[C@H](C)c3cc(OC(F)F)ncc3Cl)C1)N2 (single isomer, unassigned) [Example 59]",99 nM

# — patent US12187727B2, “Methods for antagonizing a melanocortin 4 receptor” (Pfizer Inc., priority 2020, dated 2025)
